Assay results published in patent publication US20250387481A1, “PRE-TREATED T CELLS FOR USE AS A MEDICAMENT” (STICHTING HET NEDERLANDS KANKER INSTITUUT-ANTONI VAN …, priority 2022, published 2025).

Tests used:
[1] = test system: MMTV-PyMT organoids expressing OVA; assay: Co-culture of OT I T cells with MMTV-PyMT organoids expressing OVA (cleaved-caspase 3); assay type: cell-based, mouse; settings: OT I T cells pre-treated with docetaxel vs control
Method: Experiments were approved by the Animal Welfare Committee of the Netherlands Cancer Institute and were performed in accordance with national guidelines. Mice were housed in individually ventilated cage (IVC) systems under specific pathogen-free conditions and received chow and water ad libitum. FVB/NRj females (Janvier), C57BL/6-Tg (TcraTcrb) 1100Mjb/J females (OT I mice, Jackson laboratory), and ROSA26mTmG FVB females (NKI) were used at 8-20 weeks of age at the time of fat pad injection of tumor organoids or spleen isolation.
For T cells isolated from mouse mammary tumors, T cells were directly co-cultured with tumor organoids after FACS isolation. For T cells isolated from the spleen, T cells were treated for 72 h with PBS or with docetaxel (docetaxel 10 nmol/L), in the presence or absence of an LCKi (10 μmol/L, Merck Millipore, Cat. No. 213743-31-8). To evaluate the docetaxel-specificity of our observations, T cells were treated with paclitaxel 10 nmol/L or carboplatin 50 μmol/L for 72 h. Subsequently, T cells were collected and washed 3 times in PBS to remove residual chemotherapy or LCKi.
Organoids were fixed in 4% paraformaldehyde in PBS for 20 min at room temperature, followed by permeabilization in 0.2% TritonX-100 in PBS for 15 min at room temperature. […]

[2] = test system: mouse T cells isolated from the spleen; assay: T cell immunofluorescence staining of tubulin and F-actin; assay type: cell-based; settings: 10 nmol/L, 72 h
Method: Mouse T cells isolated from the spleen and treated with a vehicle control or with docetaxel (10 nmol/L for 72 h) were seeded on glass coverslips pre-coated with poly-D-lysine (Thermo Fisher Cat. No. A3890401) and with αCD3 (eBioscience, Cat. No. 56-0033-80) for 15 min. Next, for immunofluorescence staining of tubulin, cells were extracted for 1 min with pre-warmed (37° C.) extraction buffer composed of MRB80 (80 mmol/L K-PIPES pH 6.8, 4 mmol/L MgCl2, 1 mmol/L EGTA) supplemented with 0.35% Triton X-100 and 0.2% glutaraldehyde, followed by fixation using pre-warmed (37° C.) 4% paraformaldehyde (PFA) in PBS for 10 min. Cells were washed with PBS and permeabilized with 0.2% Triton X-100 in PBS for 5 min. […]
For fluorescence intensity quantifications, samples were imaged on a spinning disk confocal setup consisting of an inverted research microscope Nikon Eclipse Ti-E (Nikon) equipped with the perfect focus system (Nikon), Plan Apo VC 100×N.A. 1.40 oil objective (Nikon), spinning disk Yokogawa CSU-X1-A1 with 405-491-561-642 quad-band mirror (Yokogawa). […]
All images were processed using ImageJ. For quantification of fluorescence intensity, sum projections were made for each z-stack using ImageJ. Next, the raw integrated density of a square box around individual cells of interest per image, as well as an empty region in the field of view, were calculated using ImageJ. […]

`CC(=O)O[C@@]12CO[C@@H]1C[C@H](O)[C@@]1(C)C(=O)[C@H](O)C3=C(C)[C@@H](OC(=O)[C@H](O)[C@@H](NC(=O)OC(C)(C)C)c4ccccc4)C[C@@](O)([C@@H](OC(=O)c4ccccc4)[C@H]21)C3(C)C` [docetaxel] was tested, and the “cytotoxicity of OT I T cells (apoptosis in OVA+ organoids)” value [1] was “further enhanced” and the microtubule density [2] was “increased microtubule density”.
